Structures can show the parent of a compound that is named as a salt.
Legend:
[1] = system: abnormal prion proteins in ScN2a cells with persistent infection of scrapie; experiment: cells; assay type: cell-based, mouse; details: for IC50: Mus musculus, ScN2a, 96 h, read-out: Inhibitory effects on producing abnormal prion protein IC50; for Inhibitory effects on producing abnormal prion proteins (in words): ScN2a cells
ScN2a cells = details: for Concentration of inhibiting cell proliferation TC: mouse
[2] = Slc:ICR, mouse, not told, iv
in vivo = details: male, Crj:CD1, mouse, iv

Compound | IC50 [1] | Inhibitory effects on producing abnormal prion proteins (in words) [1] | TC and safety concentration margin (in words) (ScN2a cells) | Concentration of inhibiting cell proliferation TC (ScN2a cells) | Permeability into the brain: content in Brain [2] | Permeability into the brain: content in Plasma [2] | MTD (in vivo)
CN(C)c1ccc(-c2cn3cc(I)ccc3n2)cc1 [BF-130, 2-(4-dimethylamino) phenyl-6-iodoimidazo-[1,2-a]pyridine] | 1 nM | highly inhibitory effects | higher TCs, therefore higher safety concentration margins | 100 µM | 7.3 % ID/g or ml | 2.4 % ID/g or ml | –
Cc1nc(/C=C/c2ccc(N(C)C)cc2)oc1C [BF-137, 2-[2-(4-dimethylamino-phenyl)ethenyl]-4-5-dimethyloxazole] | 100 nM | – | – | 100 µM | 6.5 % ID/g or ml | 2.9 % ID/g or ml | ≥ 10 mg/kg
Nc1ccc(/C=C/c2nc3cc(F)ccc3o2)cc1 [BF-140, 2-(4-amino)styryl-5-fluorobenzoxazole] | 5 nM | – | – | 50 µM | 5.5 % ID/g or ml | 1.1 % ID/g or ml | ≥ 10 mg/kg
CN(C)c1ccc(/C=C/c2cccs2)cc1 [BF-141, 2-[2-(4-dimethylamino-phenyl)ethenyl]thiophene] | 1 nM | highly inhibitory effects | – | 10 µM | – | – | 3 to 10 mg/kg
CN(C)c1ccc(-c2nc3ccccc3s2)cc1 [BF-150, 2-(4-dimethylamino-phenyl) benzothiazole] | 1 nM | highly inhibitory effects | – | 10 µM | 11.2 % ID/g or ml | 1.5 % ID/g or ml | –
CN(C)c1ccc2cc(-c3nc4cc(F)ccc4[nH]3)ccc2c1 [BF-153, 5-fluoro-2-(6-dimethyl-aminonaphthalen-2-yl)benzimidazole] | 1 nM | highly inhibitory effects | – | 10 µM | – | – | 3 to 10 mg/kg
CNc1ccc(-c2ccc3ccccc3n2)cc1 [BF-158, 2-[(4-methylamino)-phenyl]quinoline] | 10 nM | – | – | 100 µM | 9.7 % ID/g or ml | 1.8 % ID/g or ml | –
Nc1ccc(-c2ccc3ccccc3n2)cc1 [BF-170, 2-[(4-amino)phenyl]-quinoline] | 100 nM | – | – | 100 µM | 9.1 % ID/g or ml | 1.4 % ID/g or ml | –
CNc1ccc(-c2nc3ccc(O)cc3s2)cc1 [BF-172, 2-(4-methylamino)-phenyl-6-hydroxybenzo thiazole] | 1.6 nM | – | – | >10 µM | 4.9 % ID/g or ml | 2.9 % ID/g or ml | ≥ 10 mg/kg
Nc1ccc(/C=C/c2nc3cc(I)ccc3o2)cc1 [BF-173, 2-(4-amino)styryl-5-iodobenzoxazole] | 100 nM | – | – | 100 µM | – | – | ≥ 10 mg/kg
Nc1ccc(/C=C/c2ccc3ccccc3n2)cc1 [BF-177, 2-[2-(4-aminophenyl)ethenyl]quinoline] | – | – | – | – | 8.2 % ID/g or ml | 1.6 % ID/g or ml | ≥ 10 mg/kg
CNc1ccc(/C=C/c2ccc3ccccc3n2)cc1 [BF-178, 2-[2-(4-methylaminophenyl)ethenyl]quinoline] | 1000 nM | – | – | 100 µM | 6.3 % ID/g or ml | 4.5 % ID/g or ml | ≥ 10 mg/kg
CNc1ccc(/C=C/c2nc3cc(I)ccc3o2)cc1 [BF-180, 2-(4-methylamino)-styryl-5-iodobenzoxazole] | 10 nM | – | – | 100 µM | 2.4 % ID/g or ml | 1.2 % ID/g or ml | ≥ 10 mg/kg
CC1=NN(c2ccc(/C=C/c3nc4ccccc4o3)cc2)C(=O)C1 [BF-181, 2-[2-[4-(3-methyl-5-oxo-2-pyrrozolin-1-yl)-phenyl]ethenyl]benzoxazole] | – | – | – | – | – | – | 3 to 10 mg/kg
CNc1ccc(/C=C/C=C/c2nc3ccccc3o2)cc1 [BF-185, 2-[[4-(4-methylamino)-phenyl]-1,3-butadienyl]-benzoxazole] | – | – | – | – | 3.9 % ID/g or ml | 1.0 % ID/g or ml | ≥ 10 mg/kg
CNc1ccc(/C=C/C=C/c2nc3ccccc3s2)cc1 [BF-187, 2-[[4-(4-methylamino)-phenyl]-1,3-butadienyl]-benzothiazole] | 10 nM | – | – | 10 µM | 3.6 % ID/g or ml | 1.3 % ID/g or ml | ≥ 10 mg/kg
CNc1ccc(/C=C/C=C/c2nc3ccccc3[nH]2)cc1 [BF-188, 2-[[4-(4-methylamino)-phenyl]-1,3-butadienyl]-benzimidazole] | – | – | – | – | 4.8 % ID/g or ml | 1.7 % ID/g or ml | ≥ 10 mg/kg
CNc1ccc(/C=C/C=C/C=C/c2ccc3ccccc3n2)cc1 [BF-189, 1-(4-methylamino-phenyl)-6-(2-quinolyl)-1,3,5-hexatriene] | 100 nM | – | – | 100 µM | – | – | ≥ 10 mg/kg

Compound | IC50 [1] | Inhibitory effects on producing abnormal prion proteins (in words) [1] | TC and safety concentration margin (in words) (ScN2a cells) | Concentration of inhibiting cell proliferation TC (ScN2a cells) | Permeability into the brain: content in Brain [2] | Permeability into the brain: content in Plasma [2] | MTD (in vivo)
Clc1ccc(/C=C/c2nc3ccccc3o2)cc1 [BF-191, 2-[2-(4-chlorophenyl)ethenyl]benzoxazole] | 4 nM | – | – | >10 µM | 12.0 % ID/g or ml | 2.1 % ID/g or ml | –
CN(C)c1ncc(/C=C/c2nc3ccccc3s2)s1 [BF-196, 2-[2-(2-dimethylamino-thiazol-5-yl)ethenyl]-benzothiazole] | 16 nM | – | – | >10 µM | 19 % ID/g or ml | 1.8 % ID/g or ml | –
CNc1ccc(C=Cc2ccc3cc(I)ccc3n2)c(O)c1 [BF-199, 2-[2-(2-hydroxyl-4-methylaminophenyl)-ethenyl]-6-iodoquinoline] | 0.8 nM | – | – | >10 µM | – | – | ≥ 10 mg/kg
Cc1nc(/C=C/c2ccc(N(C)C)cc2O)oc1CO [BF-200, 2-[2-[(4-dimethylamino-2-hydroxy)phenyl]-ethenyl]-5-hydroxy methyl-4-methyloxazole] | – | – | – | – | – | – | ≥ 10 mg/kg
CN(C)c1ccc(/C=C/c2nc3ccccc3o2)c(O)c1 [BF-206, 2-(4-dimethylamino-2-hydroxystyryl)-benzoxazole] | 2 nM | – | – | >10 µM | – | – | ≥ 10 mg/kg
CNc1ccc(/C=C/c2nc3ccccc3o2)c(N)c1 [BF-207, 2-(2-amino-4-N-methyl-aminostyryl)benzoxazole] | – | – | – | – | – | – | ≥ 10 mg/kg
Cc1nc(/C=C/c2ccc(N(C)C)cc2O)oc1COCCF [BF-210] | – | – | – | – | – | – | ≥ 10 mg/kg
Nc1ccc(-c2ccc3cc(CF)ccc3n2)c(O)c1 [BF-213, 2-[(4-amino-2-hydroxy)-phenyl]-6-(fluoro-methyl)quinoline] | 2 nM | – | – | 10 µM | – | – | ≥ 10 mg/kg
Cc1nc(/C=C/c2cnc(N(C)C)s2)oc1C [BF-214, 2-(dimethylamino)-5-[2-(4,5-dimethyloxazol-2-yl)ethenyl]thiazole] | – | – | – | – | 9.0 % ID/g or ml | 2.1 % ID/g or ml | ≥ 10 mg/kg
CN(C)c1cnc(/C=C/c2nc3ccccc3o2)o1 [BF-215, 2-[2-(5-dimethylamino-oxazol-2-yl)-ethenyl]-benzoxazole] | – | – | – | – | 8.8 % ID/g or ml | 2.5 % ID/g or ml | ≥ 10 mg/kg
CN(C)c1ncc(-c2nc3ccccc3o2)s1 [BF-225, 2-(2-dimethylamino-thiazol-5-yl)benzoxazole] | – | – | – | – | – | – | ≥ 10 mg/kg
Cc1nc(/C=C/C=C/c2ccc(N(C)C)cc2)oc1C [BF-228, 2-[[4-(4-dimethylamino)-phenyl]-1,3-butadienyl]-3,4-dimethyloazole] | 16 nM | – | – | >10 µM | – | – | ≥ 10 mg/kg
CN(C)c1ncc(/C=C/c2nc3ccccc3o2)o1 [BF-230, 2-[2-(2-dimethylamino-oxazol-5yl)-ethenyl]benzoxazole] | – | – | – | – | – | – | ≥ 10 mg/kg
CN(C)c1ncc(/C=C/C=C/c2nc3ccccc3[nH]2)s1 [BF-231, 2-[4-(2-dimethylamino-thiazol-5-yl)-1,3-butadienyl]benzimidazole] | 1.6 nM | – | – | >10 µM | – | – | ≥ 10 mg/kg
c1ccc2cc(-c3cn4ccccc4n3)ccc2c1 [Compound N-437, 2-(2-naphthyl)imidazo-[1,2-a]pyridine hydrobromide] | 1 nM | – | – | 100 µM | – | – | ≥ 10 mg/kg
Cc1ccc2nc(-c3ccc(NC(=O)Nc4cccc(Cl)c4)cc3)sc2c1 [HT-043, 4-(6-methylbenzothiazol-2-yl)-N-(3-chlorophenyl-aminocarbonyl)aniline] | 100 nM | – | – | >10 µM | – | – | –
CCN(CC)c1ccc2cc(-c3nc4ccccc4[nH]3)c(=O)oc2c1 [SA-272, 2-(7-diethylamino-coumarin-3-yl)-benzimidazole] | 1000 nM | – | – | 100 µM | – | – | –
